ChEMBL document CHEMBL1156048, “Design and optimisation of selective serotonin re-uptake inhibitors with high synthetic accessibility: part 2” (Bioorg Med Chem Lett, 2009)

Assays:
Type in all cases: cell-based
[1] = target: Sodium-dependent noradrenaline transporter (Homo sapiens, UniProt P23975); assay: Inhibition of noradrenaline reuptake at human noradrenaline transporter expressed in HEK293 cells after 15 mins by scintillation counting
[2] = target: Sodium-dependent serotonin transporter (Homo sapiens, UniProt P31645); assay: Inhibition of serotonin reuptake at human serotonin transporter expressed in HEK293 cells after 5 mins by scintillation counting
Sodium-dependent serotonin transporter, sequence (P31645 whole entry): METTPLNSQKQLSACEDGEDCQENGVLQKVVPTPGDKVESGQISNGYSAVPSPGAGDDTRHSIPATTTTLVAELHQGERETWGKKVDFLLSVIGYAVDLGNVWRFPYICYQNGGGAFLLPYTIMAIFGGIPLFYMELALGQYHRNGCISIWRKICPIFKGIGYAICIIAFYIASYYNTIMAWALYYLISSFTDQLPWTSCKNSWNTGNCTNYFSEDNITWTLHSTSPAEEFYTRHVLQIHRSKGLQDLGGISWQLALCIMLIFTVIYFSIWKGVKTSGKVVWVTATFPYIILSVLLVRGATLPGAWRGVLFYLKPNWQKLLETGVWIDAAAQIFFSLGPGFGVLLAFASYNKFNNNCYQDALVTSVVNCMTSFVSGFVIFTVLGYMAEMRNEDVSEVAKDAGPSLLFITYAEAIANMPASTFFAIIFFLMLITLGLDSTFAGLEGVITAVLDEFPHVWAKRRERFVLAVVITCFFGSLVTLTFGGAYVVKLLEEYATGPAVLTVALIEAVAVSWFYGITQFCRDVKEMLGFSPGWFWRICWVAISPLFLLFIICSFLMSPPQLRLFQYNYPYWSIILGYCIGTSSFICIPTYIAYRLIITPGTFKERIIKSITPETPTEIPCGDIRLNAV

[3] = target: Sodium-dependent dopamine transporter (Homo sapiens, UniProt Q01959); assay: Inhibition of dopamine reuptake at human dopamine transporter expressed in HEK293 cells after 5 mins by scintillation counting
Sodium-dependent dopamine transporter, sequence (Q01959 whole entry): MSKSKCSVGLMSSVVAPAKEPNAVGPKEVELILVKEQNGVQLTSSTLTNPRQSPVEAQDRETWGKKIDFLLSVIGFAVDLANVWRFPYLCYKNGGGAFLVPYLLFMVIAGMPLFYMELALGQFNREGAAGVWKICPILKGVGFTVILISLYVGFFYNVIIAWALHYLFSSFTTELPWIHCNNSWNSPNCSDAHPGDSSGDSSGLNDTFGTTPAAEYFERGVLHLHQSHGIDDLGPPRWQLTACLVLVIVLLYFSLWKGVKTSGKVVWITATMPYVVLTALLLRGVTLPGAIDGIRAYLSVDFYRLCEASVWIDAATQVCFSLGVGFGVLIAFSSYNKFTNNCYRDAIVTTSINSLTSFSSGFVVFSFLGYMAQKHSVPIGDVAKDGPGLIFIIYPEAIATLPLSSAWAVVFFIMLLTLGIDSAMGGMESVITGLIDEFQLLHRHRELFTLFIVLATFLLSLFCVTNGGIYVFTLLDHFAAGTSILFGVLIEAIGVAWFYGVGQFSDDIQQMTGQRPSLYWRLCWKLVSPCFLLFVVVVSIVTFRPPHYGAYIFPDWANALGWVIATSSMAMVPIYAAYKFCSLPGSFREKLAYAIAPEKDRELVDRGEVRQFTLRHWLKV

[4] = target: Voltage-gated inwardly rectifying potassium channel KCNH2 (Homo sapiens, UniProt Q12809); assay: Displacement of [3H]dofetilide from human ERG expressed in HEK293 cells
Voltage-gated inwardly rectifying potassium channel KCNH2, sequence (Q12809 whole entry): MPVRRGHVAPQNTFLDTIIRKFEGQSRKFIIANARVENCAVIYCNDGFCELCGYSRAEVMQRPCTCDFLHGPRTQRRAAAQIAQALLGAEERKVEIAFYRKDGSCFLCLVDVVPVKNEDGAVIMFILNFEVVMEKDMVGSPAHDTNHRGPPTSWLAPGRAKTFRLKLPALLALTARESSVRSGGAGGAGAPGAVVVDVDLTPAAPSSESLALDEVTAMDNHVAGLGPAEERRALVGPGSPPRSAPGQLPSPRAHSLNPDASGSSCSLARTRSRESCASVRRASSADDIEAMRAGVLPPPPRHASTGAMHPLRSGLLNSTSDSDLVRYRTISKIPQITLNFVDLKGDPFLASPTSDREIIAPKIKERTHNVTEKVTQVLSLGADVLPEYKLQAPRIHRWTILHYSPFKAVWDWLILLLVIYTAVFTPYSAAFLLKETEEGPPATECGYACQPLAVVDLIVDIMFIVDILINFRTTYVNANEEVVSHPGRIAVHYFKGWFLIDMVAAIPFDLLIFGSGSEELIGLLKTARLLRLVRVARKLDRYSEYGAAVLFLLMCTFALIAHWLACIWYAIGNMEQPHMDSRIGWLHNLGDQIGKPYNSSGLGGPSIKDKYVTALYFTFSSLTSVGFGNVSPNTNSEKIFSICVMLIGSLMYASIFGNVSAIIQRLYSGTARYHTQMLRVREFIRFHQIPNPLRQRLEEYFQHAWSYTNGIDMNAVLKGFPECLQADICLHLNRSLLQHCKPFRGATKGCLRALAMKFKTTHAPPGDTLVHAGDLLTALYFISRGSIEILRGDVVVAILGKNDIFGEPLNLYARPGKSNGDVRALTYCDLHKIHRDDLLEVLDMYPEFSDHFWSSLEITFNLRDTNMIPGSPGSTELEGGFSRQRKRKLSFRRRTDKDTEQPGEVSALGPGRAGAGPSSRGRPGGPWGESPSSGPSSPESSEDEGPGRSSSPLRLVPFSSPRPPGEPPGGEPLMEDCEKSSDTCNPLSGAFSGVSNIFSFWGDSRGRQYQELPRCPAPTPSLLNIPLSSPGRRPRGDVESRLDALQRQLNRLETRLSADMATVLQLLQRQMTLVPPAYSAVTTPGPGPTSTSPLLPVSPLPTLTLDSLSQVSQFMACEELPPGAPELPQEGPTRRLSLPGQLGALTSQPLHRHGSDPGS

Sodium-dependent noradrenaline transporter, sequence (P23975 whole entry): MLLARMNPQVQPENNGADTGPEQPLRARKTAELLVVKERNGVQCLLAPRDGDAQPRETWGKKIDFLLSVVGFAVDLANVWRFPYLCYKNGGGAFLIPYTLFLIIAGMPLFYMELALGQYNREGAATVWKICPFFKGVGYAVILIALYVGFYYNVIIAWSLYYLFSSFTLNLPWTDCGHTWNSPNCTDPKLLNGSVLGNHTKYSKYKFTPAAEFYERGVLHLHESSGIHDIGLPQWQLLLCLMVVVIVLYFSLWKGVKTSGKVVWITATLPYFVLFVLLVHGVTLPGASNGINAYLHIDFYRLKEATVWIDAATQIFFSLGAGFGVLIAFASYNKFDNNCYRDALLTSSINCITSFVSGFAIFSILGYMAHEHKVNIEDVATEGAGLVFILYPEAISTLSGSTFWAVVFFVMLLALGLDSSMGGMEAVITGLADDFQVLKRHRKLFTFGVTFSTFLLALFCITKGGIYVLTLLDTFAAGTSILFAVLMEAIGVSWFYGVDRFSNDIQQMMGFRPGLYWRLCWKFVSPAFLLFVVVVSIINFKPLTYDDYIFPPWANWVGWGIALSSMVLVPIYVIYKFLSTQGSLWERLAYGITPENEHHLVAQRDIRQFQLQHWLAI

| Compound | IC50 [1] [nM] | IC50 [2] [nM] | IC50 [3] [nM] | Ki [4] [nM] |
| --- | --- | --- | --- | --- |
| CCCN(C(=O)c1ccc2ccccc2c1)C1CCNCC1 | > 40000 | 28.3 | > 40000 | – |
| CC(C)N(C(=O)c1ccc2ccccc2c1)[C@@H]1CCNC1 | 7500 | 15 | > 14000 | – |
| Cc1c(C(=O)N(CC(C)(C)C)[C@H]2CCNC2)ccc(Cl)c1Cl | 357 | 15 | > 28000 | – |
| CS(=O)(=O)N(Cc1ccc2ccccc2c1)[C@@H]1CCNC1 | 7000 | 17 | > 68000 | 4200 |
| CCC(=O)N(Cc1ccc2ccccc2c1)C1CCNCC1 | 1300 | 1 | 339 | 12000 |
| c1cnc(N(Cc2ccc3ccccc3c2)C2CCNCC2)nc1 | 1200 | 10 | 1300 | – |
| O=C(c1ccc2ccccc2c1)N(C1CCCC1)[C@@H]1CCNC1 | 677 | 12 | 7400 | – |
| Cc1c(C(=O)N(C(C)C)[C@@H]2CCNC2)ccc(Cl)c1Cl | 5700 | 7 | > 40000 | – |
| CC(C)CN(C(=O)c1ccc2ccccc2c1)[C@H]1CCNC1 | 24 | 3 | 744 | – |
| CN(C(=O)c1ccc(Cl)c(Cl)c1)[C@@H]1CCNC1 | – | > 400 | – | – |
| CS(=O)(=O)N(Cc1ccc2ccccc2c1)[C@H]1CCNC1 | 370 | 3.5 | 2800 | 11000 |
| CC(=O)N(Cc1ccc2ccccc2c1)C1CCNCC1 | 8900 | 4.5 | 1500 | > 20000 |
| Cc1c(C(=O)N(C)[C@@H]2CCNC2)ccc(Cl)c1Cl | – | 58 | – | – |
| CS(=O)(=O)N(Cc1ccc2ccccc2c1)C1CCNCC1 | 2500 | 3.5 | 4900 | 3200 |
| O=C(c1ccc2ccccc2c1)N(C1CCC1)[C@@H]1CCNC1 | 6000 | 9 | 5800 | – |
| CCN(C(=O)c1ccc(Cl)c(Cl)c1C)[C@@H]1CCNC1 | 17400 | 10 | > 40000 | – |
| CCC(=O)N(Cc1ccc2ccccc2c1)[C@@H]1CCNC1 | 224 | 2.4 | 266 | – |
| Cc1c(CN([C@@H]2CCNC2)S(C)(=O)=O)ccc2cc(F)ccc12 | 735 | 4.6 | > 28000 | 1600 |
| O=C(NC1CCNCC1)c1ccc2ccccc2c1 | – | > 400 | – | – |
| CC(C)CN(C(=O)c1ccc2ccccc2c1)[C@@H]1CCNC1 | 1200 | 5 | – | 7000 |
| CC(=O)N(Cc1ccc2ccccc2c1)[C@@H]1CCNC1 | 726 | 5.2 | > 12000 | – |
| O=C(c1ccc2ccccc2c1)N(C1CCC1)C1CCNCC1 | > 40000 | 10 | > 40000 | > 10000 |
| c1ccc2cc(COC3CCNCC3)ccc2c1 [LITOXETINE] | 1400 | 5.9 | 6700 | – |
